Assay results published in DBAASP.
Values after ≈ are worked out from the molar mass of the structure shown.

Columns and labels:
Experiment in all cases: ≥ marks a high value that may be exact or a test limit, other limits are often not marked, values filed in µg/mL are converted to µM
[1] = tested on: Candida albicans ATCC 90028
[2] = tested on: Escherichia coli ATCC 25922
[3] = tested on: Staphylococcus aureus ATCC 25923
[4] = tested on: Candida albicans
[5] = tested on: Klebsiella pneumoniae
[6] = tested on: Bacillus cereus
[7] = tested on: Escherichia coli
[8] = tested on: Candida albicans ATCC 10231
[9] = tested on: Pseudomonas aeruginosa ATCC 27853
[10] = tested on: Staphylococcus aureus ATCC 29213
[11] = tested on: Bacillus subtilis
[12] = tested on: Staphylococcus aureus
[13] = tested on: Bacillus subtilis ATCC 6633
[14] = tested on: Klebsiella pneumoniae ATCC 700603
[15] = tested on: Staphylococcus epidermidis ATCC 12228

SMILES	MIC [2] [µM]	MIC [3] [µM]	MIC [6] [µM]	MIC [7] [µM]	MIC [9] [µM]	also measured
CC[C@H](C)[C@H](NC(=O)[C@H](C)NC(=O)CNC(=O)[C@H](CC(C)C)NC(=O)[C@@H](N)Cc1ccccc1)C(=O)N[C@@H](C)C(=O)NCC(=O)N[C@H](C(=O)N[C@@H](C)C(=O)N[C@@H](C)C(=O)N[C@@H](CCCCN)C(=O)N[C@@H](Cc1ccccc1)C(=O)N[C@@H](CC(C)C)C(=O)N1CCC[C@H]1C(=O)N[C@@H](CCCCN)C(=O)N[C@H](C(=O)N[C@@H](Cc1ccccc1)C(=O)N[C@H]1CSSC[C@@H](C(=O)O)NC(=O)[C@H](CCCCN)NC(=O)[C@H](CCCCN)NC(=O)[C@H]([C@@H](C)O)NC(=O)[C@H]([C@@H](C)CC)NC(=O)[C@H](Cc2ccccc2)NC1=O)C(C)C)C(C)C [FLGAIAGVAAKFLPKVFCFITKKC]	25 (≈ 64.3 µg/mL)	3 (≈ 7.71 µg/mL)				MIC [1]: 3 µM (≈ 7.71 µg/mL)
CC[C@H](C)[C@H](NC(=O)CNC(=O)[C@H](CC(N)=O)NC(=O)[C@@H](NC(=O)[C@H](C)NC(=O)[C@H](CC(N)=O)NC(=O)[C@H](CC(C)C)NC(=O)[C@H](C)NC(=O)[C@H](C)NC(=O)[C@H](CCCN=C(N)N)NC(=O)CNC(=O)[C@H](C)NC(=O)[C@H](C)NC(=O)[C@H](C)NC(=O)[C@H](C)NC(=O)[C@H](CCSC)NC(=O)[C@H](CC(=O)O)NC(=O)[C@H](CCCCN)NC(=O)[C@@H](NC(=O)[C@H](CO)NC(=O)[C@H](CO)NC(=O)[C@H](CCCN=C(N)N)NC(=O)[C@H](CC(C)C)NC(=O)[C@@H](N)CO)[C@@H](C)CC)C(C)C)C(=O)N[C@H](C(=O)N[C@@H](CC(N)=O)C(=O)N1CCC[C@H]1C(N)=O)C(C)C [SLRSSIKDMAAAAGRAALNAVNGIVNP]	96.1 (≈ 256 µg/mL)	> 192				MIC [4]: 384 µM (≈ 1020 µg/mL); MIC [5]: > 189 µM
CC[C@H](C)[C@H](NC(=O)[C@H](CC(C)C)NC(=O)[C@H](CO)NC(=O)[C@@H]1CCCN1C(=O)[C@@H](NC(=O)[C@@H](NC(=O)[C@H](CCCCN)NC(=O)[C@H](CO)NC(=O)[C@H](C)NC(=O)[C@@H](NC(=O)[C@H](CCCN=C(N)N)NC(=O)CNC(=O)[C@@H](NC(=O)[C@@H](N)C(C)C)C(C)C)C(C)C)C(C)C)C(C)C)C(=O)NCC(=O)N[C@@H](CC(C)C)C(=O)N[C@@H](Cc1ccccc1)C(=O)N[C@H](C(=O)N[C@H](C(=O)N[C@@H](CCCCN)C(=O)O)[C@@H](C)O)[C@@H](C)O [VVGRVASKVVPSLIGLFTTK]			≥ 124	> 124		
CC[C@H](C)[C@H](NC(=O)[C@@H](NC(=O)[C@H](CO)NC(=O)[C@@H]1CCCN1C(=O)[C@@H](NC(=O)[C@@H](NC(=O)[C@H](CCCCN)NC(=O)[C@H](CO)NC(=O)[C@H](C)NC(=O)[C@@H](NC(=O)CNC(=O)[C@H](Cc1ccccc1)NC(=O)[C@@H](NC(=O)[C@@H](NC(=O)[C@@H](N)CO)C(C)C)C(C)C)C(C)C)C(C)C)C(C)C)C(C)C)C(=O)NCC(=O)N[C@@H](CCCCN)C(=O)N[C@H](C(=O)N[C@@H](CCCCN)C(=O)N[C@H](C(=O)O)[C@@H](C)O)C(C)C [SVVFGVASKVVPSVIGKVKT]			≥ 128	> 128		
CSCC[C@H](NC(=O)[C@H](CO)NC(=O)[C@H](Cc1ccccc1)NC(=O)[C@@H](NC(=O)[C@H](CO)NC(=O)[C@@H]1CCCN1C(=O)[C@@H](NC(=O)[C@@H](NC(=O)[C@H](CCCCN)NC(=O)[C@H](CO)NC(=O)[C@H](C)NC(=O)[C@H](CC(C)C)NC(=O)[C@H](CO)NC(=O)[C@H](Cc1ccccc1)NC(=O)[C@H](CC(C)C)NC(=O)[C@H](C)N)C(C)C)C(C)C)C(C)C)C(=O)N[C@H](C(=O)N[C@H](C(=O)N[C@@H](CCCCN)C(=O)N[C@@H](CCCCN)C(=O)O)[C@@H](C)O)C(C)C [ALFSLASKVVPSVFSMVTKK]			≥ 120	> 120		
CC[C@H](C)[C@H](NC(=O)[C@H](CC(C)C)NC(=O)[C@H](CC(C)C)NC(=O)CNC(=O)[C@H](CCCCN)NC(=O)[C@H](CC(C)C)NC(=O)[C@H](CCCCN)NC(=O)[C@@H]1CCCN1C(=O)[C@H](CC(C)C)NC(=O)[C@H](CC(C)C)NC(=O)[C@H](CC(C)C)NC(=O)[C@H](CCCCN)NC(=O)[C@H](CC(C)C)NC(=O)[C@H](CC(C)C)NC(=O)[C@H](CCCCN)NC(=O)[C@@H](N)Cc1ccc(O)cc1)C(=O)N[C@@H](CCCCN)C(=O)N[C@@H](CC(C)C)C(N)=O [YKLLKLLLPKLKGLLIKL]					9.39 (≈ 19.8 µg/mL)	MIC [8]: 77.6 µM (≈ 164 µg/mL); MIC [10]: 2.32 µM (≈ 4.9 µg/mL)
CC(C)C[C@H](NC(=O)[C@H](C)NC(=O)[C@H](CC(C)C)NC(=O)[C@H](CC(N)=O)NC(=O)[C@H](CCCCN)NC(=O)[C@H](Cc1ccccc1)NC(=O)[C@@H](NC(=O)[C@H](CC(=O)O)NC(=O)[C@H](CC(C)C)NC(=O)[C@H](Cc1ccccc1)NC(=O)CN)[C@@H](C)O)C(=O)N[C@@H](CC(N)=O)C(=O)N[C@@H](C)C(=O)N[C@@H](C)C(=O)N[C@@H](CCCCN)C(=O)N[C@@H](CO)C(=O)N[C@@H](C)C(=O)NCC(=O)N[C@H](C(=O)N[C@@H](CO)C(=O)N[C@H](C(=O)N[C@@H](CC(C)C)C(=O)N[C@@H](CC(N)=O)C(=O)N[C@@H](CO)C(=O)N[C@@H](CC(C)C)C(=O)N[C@@H](CO)C(=O)N[C@H]1CSSC[C@@H](C(=O)O)NC(=O)[C@H]([C@@H](C)O)NC(=O)[C@H](CCCCN)NC(=O)[C@H](Cc2ccccc2)NC(=O)[C@H](CC(C)C)NC(=O)[C@H](CCCCN)NC1=O)C(C)C)C(C)C [GFLDTFKNLALNAAKSAGVSVLNSLSCKLFKTC]				4.71 (≈ 16.3 µg/mL)		MIC [11]: 2.36 µM (≈ 8.16 µg/mL); MIC [4]: 1.18 µM (≈ 4.08 µg/mL); MIC [12]: 2.36 µM (≈ 8.16 µg/mL)
CC[C@H](C)[C@H](NC(=O)[C@H](CCCN=C(N)N)NC(=O)[C@H](CCC(N)=O)NC(=O)[C@@H](NC(=O)[C@@H](NC(=O)[C@H](CCCN=C(N)N)NC(=O)[C@@H](N)CCCCN)[C@@H](C)CC)C(C)C)C(=O)N[C@@H](CCCCN)C(=O)N[C@@H](CC(=O)O)C(=O)N[C@@H](Cc1ccccc1)C(=O)N[C@@H](C)C(=O)N[C@@H](CCCN=C(N)N)C(=O)O [KRIVQRIKDFAR]	20 (≈ 30.6 µg/mL)				40 (≈ 61.2 µg/mL)	MIC [1]: ≥ 40 µM; MIC [10]: 40 µM (≈ 61.2 µg/mL)
CC[C@H](C)[C@H](NC(=O)[C@H](CC(C)C)NC(=O)[C@H](CO)NC(=O)[C@@H]1CCCN1C(=O)[C@@H](NC(=O)[C@@H](NC(=O)[C@H](CCCCN)NC(=O)[C@H](CO)NC(=O)[C@H](C)NC(=O)[C@@H](NC(=O)[C@H](CO)NC(=O)[C@H](Cc1ccccc1)NC(=O)[C@@H](NC(=O)[C@@H](NC(=O)[C@@H]1CCCN1)C(C)C)C(C)C)C(C)C)C(C)C)C(C)C)C(=O)N[C@@H](CO)C(=O)N[C@@H](C)C(=O)N[C@@H](CC(C)C)C(=O)N[C@@H](CCCCN)C(=O)N[C@@H](CCCN=C(N)N)C(=O)O [PVVFSVASKVVPSLISALKR]			≥ 122	> 122		
CC(=O)N[C@@H](CC(C)C)C(=O)N[C@@H](Cc1ccccc1)C(=O)N[C@@H](CCCCN)C(=O)N[C@@H](CCCCN)C(=O)N[C@@H](CC(N)=O)C(=O)N[C@@H](CCCCN)C(=O)N[C@@H](CC(C)C)C(=O)N[C@@H](Cc1c[nH]c2ccccc12)C(=O)N[C@@H](Cc1ccccc1)C(=O)N[C@@H](CCCCN)C(=O)N[C@@H](CO)C(=O)N[C@@H](CCCCN)C(=O)N[C@@H](CCCCN)C(=O)N[C@@H](Cc1c[nH]c2ccccc12)C(=O)N[C@@H](CC(C)C)C(N)=O [LFKKNKLWFKSKKWL]	50 (≈ 102 µg/mL)	50 (≈ 102 µg/mL)			50 (≈ 102 µg/mL)	MIC [13]: 6.4 µM (≈ 13 µg/mL); MIC [14]: 50 µM (≈ 102 µg/mL); MIC [15]: 25 µM (≈ 50.9 µg/mL)
